In the NIST ThermoML archive (doi:10.1021/je050005h):

Key:
[1] = xn = mol fraction of the nth substance listed; conditions: 101 kPa, Liquid
[2] = 101 kPa, Liquid

O [water] + C1CCNCC1
[1], x2 = 0
Conditions	kinematic viscosity [m2/s]	mass density [kg/m3]
293.15 K	9.9e-07	–
303.15 K	8.1e-07	–
313.15 K	6.66e-07	–
323.15 K	5.61e-07	988.02

C1CCNCC1 [piperidine] + O
[1]
Conditions	kinematic viscosity, 293.15 K [m2/s]	kinematic viscosity, 303.15 K [m2/s]	kinematic viscosity, 313.15 K [m2/s]	kinematic viscosity, 323.15 K [m2/s]	mass density, 293.15 K [kg/m3]	mass density, 303.15 K [kg/m3]	mass density, 313.15 K [kg/m3]	mass density, 323.15 K [kg/m3]
x1 = 0.0055	1.11e-06	8.82e-07	7.18e-07	5.98e-07	997.07	994.34	990.68	986.17
x1 = 0.011	1.21e-06	9.53e-07	7.72e-07	6.36e-07	995.89	992.89	989.03	984.42
x1 = 0.028	1.5e-06	1.2e-06	9.42e-07	8.12e-07	992.43	987.87	982.66	976.92
x1 = 0.0573	2.2e-06	1.74e-06	1.33e-06	1.07e-06	985.56	979.56	973.25	966.6
x1 = 0.0986	3.55e-06	2.55e-06	1.88e-06	1.47e-06	974.58	967.57	960.35	952.86
x1 = 0.1795	5.94e-06	4.01e-06	2.81e-06	2.14e-06	955.67	947.6	939.32	930.84
x1 = 0.2672	7.62e-06	5.06e-06	3.48e-06	2.62e-06	940.18	931.55	922.71	913.66
x1 = 0.3536	8.02e-06	5.42e-06	3.71e-06	2.68e-06	927.85	918.89	909.73	900.37
x1 = 0.4387	7.04e-06	4.97e-06	3.49e-06	2.53e-06	917.5	908	899	889
x1 = 0.5225	6.09e-06	4.37e-06	3.1e-06	2.31e-06	906.51	897.28	887.84	878.22
x1 = 0.6458	4.49e-06	3.22e-06	2.33e-06	1.83e-06	892.99	883.65	874.16	864.51
x1 = 0.8454	–	–	–	–	875.08	865.74	856.27	846.67
x1 = 0.8455	2.6e-06	2e-06	1.62e-06	1.31e-06	–	–	–	–
x1 = 1	1.79e-06	1.49e-06	1.25e-06	1.06e-06	863.81	854.5	845.08	835.56

O [water] + C1CCNC1
[1], x2 = 0
Conditions	kinematic viscosity [m2/s]	mass density [kg/m3]
293.15 K	9.9e-07	–
303.15 K	8.1e-07	–
313.15 K	6.66e-07	–
323.15 K	5.61e-07	988.02

C1CCNC1 [pyrrolidine] + O
[1]
Conditions	kinematic viscosity, 293.15 K [m2/s]	kinematic viscosity, 303.15 K [m2/s]	kinematic viscosity, 313.15 K [m2/s]	kinematic viscosity, 323.15 K [m2/s]	mass density, 293.15 K [kg/m3]	mass density, 303.15 K [kg/m3]	mass density, 313.15 K [kg/m3]	mass density, 323.15 K [kg/m3]
x1 = 0.0057	–	–	–	–	997.13	994.41	990.83	986.46
x1 = 0.0101	–	–	–	–	996.33	993.49	989.78	985.31
x1 = 0.0221	1.44e-06	1.12e-06	8.8e-07	7.63e-07	994.47	991.12	986.92	982
x1 = 0.0678	2.47e-06	1.76e-06	1.34e-06	1.06e-06	989.46	983.41	976.91	970.03
x1 = 0.1158	3.52e-06	2.42e-06	1.77e-06	1.36e-06	980.95	973.19	965.26	957.15
x1 = 0.2076	4.53e-06	3.15e-06	2.27e-06	1.73e-06	962.31	953.57	944.65	935.51
x1 = 0.3039	4.78e-06	3.34e-06	2.46e-06	1.87e-06	943.39	934.33	925.06	915.6
x1 = 0.3958	4.36e-06	3.13e-06	2.31e-06	1.79e-06	928.64	919.34	909.83	900.11
x1 = 0.4834	3.64e-06	2.73e-06	2.08e-06	1.61e-06	917.04	907.58	897.92	888.05
x1 = 0.5671	2.99e-06	2.24e-06	1.76e-06	1.39e-06	906.1	896	886.2	877.7
x1 = 0.6858	2.13e-06	1.71e-06	1.37e-06	1.12e-06	893.17	883.53	873.7	863.68
x1 = 0.8675	1.31e-06	1.07e-06	9.13e-07	7.84e-07	872.39	862.69	852.81	846.3
x1 = 1	9.54e-07	8.27e-07	7.43e-07	6.41e-07	859.87	850.11	840.24	833.88

C1CCNC1 [pyrrolidine]
[2]
Conditions	kinematic viscosity [m2/s]	mass density [kg/m3]
293.15 K	9.54e-07	859.87
303.15 K	8.27e-07	850.11
313.15 K	7.43e-07	840.24
323.15 K	6.41e-07	833.88

C1CCNCC1 [piperidine]
[2]
Conditions	kinematic viscosity [m2/s]	mass density [kg/m3]
293.15 K	1.79e-06	863.81
303.15 K	1.49e-06	854.5
313.15 K	1.25e-06	845.08
323.15 K	1.06e-06	835.56
